Drawing on a melting point compilation (Tetko et al.; mined from patent text by program, amines drawn as free bases though some values may be those of a salt), this text covers melting point for 88 molecules.

In the case of `O=C(N[C@H]1CCC[C@@H](CN2CC=C(c3ccccc3)CC2)C1)c1ccccc1`, the melting point lay within 200 to 204 °C.

With `CCOC(=O)c1ccc(C(NCC(=O)Nc2c(C(C)C)cccc2C(C)C)c2ccccc2)cc1` (stereo not drawn), the melting point lay within 139 to 140 °C. Under `c1coc(-c2n[nH]c3c2Cc2ccccc2-3)c1` stands 195 to 197 °C; under `Cc1ccc(N2CCCCC2)c(C(C)C(C(N)=O)c2ccc(C(=O)O)cc2)c1` (stereo not drawn), 215 to 217 °C; under `N#Cc1ccc(-c2cn(-c3ccc(I)cc3)c(SCc3ccncc3)n2)cc1`, 155 to 162 °C. `O=C(O)CCCOc1ccc(C2=NNC(=O)CC2)cc1Cl` came in with a melting point of 195 to 197 °C. The result for `O=C1CCCc2nc3ccccc3c(NCc3ccccc3F)c21` reads 164 °C; that for `COc1cc(OC)c(C(=O)CC(O)C(=O)O)cc1OC` (stereo not drawn), 145 to 147 °C. Molecule `COc1ccc(NC(=O)c2ccc(F)c(F)c2)cc1NC(=S)Nc1cccc(C(=O)O)c1` returned a melting point of 218 to 220 °C. Regarding `CCOC(=O)Cc1ccnc2c(NC(=O)c3c(Cl)cccc3Cl)cccc12`, the melting point lay in the range of 150 to 152 °C.

Molecule `FC(F)(F)c1cccc(-c2ccc3nnc(C(F)(F)F)n3n2)c1` had a melting point of 189 °C.

Regarding `CS(=O)(=O)c1cccc(Nc2cc(-c3ccccc3O)ncn2)c1`, the melting point lay within 214 to 216 °C. Under `COc1ccc(S(=O)(=O)Nc2cccnc2Nc2cccc(C)c2)cc1` stands 147 to 148 °C. Under `COc1ccccc1C(=O)NC1CCCn2c1nc(-c1ccncc1)cc2=O` (racemic) stands 155 to 157 °C. The result for `CC1(C)CC(N(c2nc(Cl)nc(N(C3CC(C)(C)N(O)C(C)(C)C3)C3CC(C)(C)N(O)C(C)(C)C3)n2)C2CC(C)(C)N(O)C(C)(C)C2)CC(C)(C)N1O` reads 252 to 256 °C; that for `COC(=O)CCC/C=C(/c1cc(C)c2on(C)c(=O)c2c1)c1cc(C)c2oc(=O)n(C)c2c1`, 152 to 154 °C; that for `CCCCOc1cc(C(=O)O)cc(NC(C)=O)c1C(=O)c1ccccc1`, 177 to 178 °C.

For the molecule `Nc1ccc(CCC(=O)Nc2ccc(Cl)cc2Cl)cc1[N+](=O)[O-]`, the melting point is 164 to 165 °C. Molecule `O=C(Nc1ccc(-n2nc(C(F)(F)F)cc2C(F)(F)F)cc1)c1ccc(F)c(C(F)(F)F)c1` gave a melting point of 142 to 144 °C. Take `O=Cc1cn(-c2ccccc2)nc1O`: the melting point was in the range of 196 to 197 °C. The result for `CN1CCN(c2ccc([N+](=O)[O-])c(C(=O)O)c2)CC1` reads 212 °C. In the case of `COc1cccc2c(Cl)c(CCCCl)cnc12`, the melting point is 86 to 89 °C. For `Cn1cc2c(n1)-c1cnn(C)c1CC2`, the melting point was in the range of 140 to 145 °C. Regarding `COc1cc2c(cc1O)CCC1C3=CCC(O)C3(C)CCC21` (stereo not drawn), the melting point was 169 to 171 °C. Regarding `CC(C)Oc1ccc(CCCOc2cc(CCC(=O)O)n(C)n2)c(OCc2ccc(C(F)(F)F)cc2)c1`, the melting point lay in the range of 88 to 89 °C. `CSCc1nn(-c2c(Cl)cc(C(F)(F)F)cc2Cl)nc1C=NC(C#N)=C(N)C#N` had a melting point of 237 to 239 °C.

For `O=C(CCCCC1SCC2NC(=O)NC21)NCCOCCOCCN1C(=O)C=C(Br)C1=O` (stereo not drawn), the melting point lay within 95 to 98 °C. Consider `CC1(C)C=Cc2cc(-c3nnnn3CCN3C(=O)c4ccccc4C3=O)ccc2O1`, for which the melting point was 178 to 182 °C. For the molecule `COC(OC)/C(=C/c1ccc(Cl)cc1Cl)c1ccc(Cl)cc1`, the melting point is 87 to 90 °C. Consider `O=C1CC(O)CN1S(=O)(=O)c1ccc(N2CCCCC2)cc1` (stereo not drawn), for which the melting point lay within 158 to 159 °C. As for `C=C(C)c1cc(C(=O)OC)c(OCc2ccccc2)cc1OCc1ccccc1`, the melting point lay in the range of 92 to 94 °C.

As to `Cc1ccc(Cn2ccnc2)cc1`, the melting point lay in the range of 51 to 53 °C.

Regarding `CC(C)(CON=Cc1ccccc1Cl)C(=O)O`, the melting point lay within 78 to 80 °C. In turn, `CCC1(O)CC(=O)OCc2c1cc1n(c2=O)Cc2c-1nc1ccccc1c2Cc1ccccc1` (stereo not drawn) had a melting point above 250 °C. For the molecule `CCCCCCCC1(C(=O)OC)CCC(C2CCC(CCC)CC2)CC1` (stereo not drawn), the melting point came to 49 °C.

In turn, `COc1cccc(OC)c1-c1cc(C(=O)NC2(C(=O)O)C3CC4CC(C3)CC2C4)nn1-c1ccc(C(=O)N(C)CCC(=O)O)cc1C(C)C` (stereo not drawn) gave a melting point of 166 to 168 °C.

In turn, `c1cc(-n2cccc2)cc(-n2cnc3cc(-c4ccoc4)ccc32)c1` displayed a melting point of 144 to 145 °C. The result for `COc1ccc(CC2NCCOc3c2cnn(C)c3=O)cc1` (stereo not drawn) reads 92 to 93 °C; that for `CC(C)[C@]1(CCc2ccsc2)CC(O)=CC(=O)O1`, 117 to 123 °C; that for `N#CC(C#N)=CN(N=C(C#N)C#N)c1ccc(F)cc1`, 138 to 139 °C. Under `COC(=O)CN(c1ccccc1C)S(=O)(=O)c1ccccc1C(=O)c1cc(OC)c2c(c1)OCO2` stands 159 to 170 °C; under `CN(C)c1ccc2c(c1)SSSSS2`, 122 °C.

Turning to `COc1ccc2c(c1)[C@H]1CN(C)CC[C@@H]1CC2=O` (relative stereo), the melting point is above 250 °C. Under `COC(=O)NN=C(C)c1cc(Cl)ccc1NS(=O)(=O)C(F)(F)F` stands 211 to 214 °C.

As for `CCOP(=O)(/C=C/c1cn(-c2ccccc2)nc1OCc1ccc(OCc2nc(/C=C/C(=O)O)oc2C)c(OC)c1)OCC`, the melting point lay within 89 to 90 °C. `NS(=O)(=O)c1cc(C(=O)O)cc(S(=O)(=O)Cc2ccccc2)c1Cl` showed a melting point of 236 to 237 °C. Regarding `Cc1ccc(C(=S)Nc2cc(F)ccc2F)cc1`, the melting point is 118 to 121 °C. Molecule `O=C(CBr)c1cccc(OCc2ccc3ccc(Cl)cc3n2)c1` yielded a melting point of 110 to 112 °C. `COC(=O)NC(CC(=O)c1ccccc1)C(=O)O` (stereo not drawn) showed a melting point of 132 to 135 °C. Molecule `Cc1ccccc1C(O)c1nnn[nH]1` (racemic) registered a melting point of 124 to 126 °C.

As to `O=C1N(c2cc(Cl)cc(Cl)c2)C(=O)C2(Cc3ccc(Br)cc3)CCCN12` (stereo not drawn), the melting point amounted to 69.4 °C.

`C=CCNc1nc(NCC(=C)C)c2scc(C)c2n1` gave a melting point of 83 °C. Turning to `CCn1nc2c(N)nc3ccccc3c2c1CC(C)(C)NCCS(C)(=O)=O`, the melting point fell in the range of 155 to 157 °C. Turning to `CC(C)CC(O)c1cccc(NC(=O)OCc2ccccc2)c1` (stereo not drawn), the melting point was 73 to 77 °C. The result for `COc1ccc(Cn2c(=O)c(=NNc3ccccc3)c(=O)n(CCC(C)C)c3ccccc32)cc1` reads 189 to 191 °C; that for `CC(=O)C=Cc1cn(CC(=O)N(C)CCc2ccccc2)c2ccc(OCc3ccccc3)cc12`, 150 to 152 °C. Molecule `CCN1C(=O)C(C)(C)C(=O)N(C)c2cc(CN(C)Cc3ccccc3CN3C(=O)CCc4ccccc43)ccc21` came in with a melting point of 125 to 127 °C. The result for `CCOC(=O)CCc1cc2ccccc2c(-c2ccccc2)n1` reads 109 °C; that for `COc1ccc(C=C2c3ccccc3C(=O)c3ccccc32)cc1OCC(=O)N1CCC(CO[N+](=O)[O-])CC1`, 63 to 65 °C; that for `CO/N=C(\C(=O)OC)c1csc(O)n1`, 97 to 98 °C. The result for `COc1ccccc1C(=CC#N)c1ccccc1OC` reads 99 to 100 °C. In turn, `Nc1cc(C(=O)c2ccc(C(=O)c3ccc(F)c(N)c3)cc2)ccc1F` showed a melting point of 220 to 221 °C. Take `CC(C)Nc1cccnc1N1CCN(C(=O)c2ccc(C(=O)N3CCN(CCCO)CC3)cc2)CC1`: the melting point was determined as 129 °C. With `O=C(Nc1ccc(C(F)(F)F)cc1)Nc1nc(Cl)cc(Cl)n1`, the melting point fell in the range of 99 to 101 °C.

In turn, `CCCOc1ccc(OC)c(-c2csc(N)n2)c1` yielded a melting point of 76 °C. Under `C[C@@H]1C[C@H](I)[C@@H]2C[C@H]1C(=O)O2` stands 99 to 100 °C; under `COC(=O)C(F)[C@@H]1[C@H]2O[C@H]2C[C@H]1O` (stereo partly drawn), 31 to 33 °C. The result for `CCC(Oc1cccc(C(F)(F)F)c1C)C1=NCCN1` (stereo not drawn) reads 120 to 122 °C. Under `CN(C)c1ccc(C=O)c(O)c1` stands 77 to 78 °C; under `Cc1c(C(=O)O)sc2[nH]c(=O)c(=O)[nH]c12`, 289 to 294 °C. Take `CC(C)Oc1c(C(=O)O)sc2c1CN(C(=O)OC(C)(C)C)CC2`: the melting point was in the range of 128 to 129 °C. Under `CC(C)(C)OC(=O)N1CCc2ccc3ccn(CCOc4ccccc4F)c3c2CC1` stands 132 to 134 °C. Under `COc1ccc(-c2cc(=O)n(Cc3ccccn3)nc2-c2ccc(OC)cc2)cc1` stands 116 to 117 °C. For `COc1ccnc(CSc2nc3c(OC(F)F)c(OC)c(OC)cc3[nH]2)c1C`, the melting point is 177 to 179 °C. The result for `COc1cc(C(=O)O)ccc1Cn1ccc2ccc(NC(=O)OC3CCCC3)cc21` reads 237 to 238 °C. In turn, `COc1ccc(-n2ccnc2C(c2cc(F)ccc2F)S(=O)(=O)c2ccc(Cl)cc2)cc1` (stereo not drawn) yielded a melting point of 150 to 151 °C. On to `O=C1CC(O)CC(/C=C/c2ccc(Cl)c(Cl)c2)O1` (stereo not drawn), for which the melting point was in the range of 92 to 94 °C. Under `CC(=O)COc1ccc2cc(S(N)(=O)=O)sc2c1` stands 181 to 185 °C; under `Nc1c(OCC(F)(F)F)cc(O)c2c1C(=O)c1ccccc1C2=O`, 266 to 268 °C. `O=c1ccccn1C1=CC(CF)(CF)Oc2ccc(C(F)(F)C(F)(F)C(F)(F)F)cc21` displayed a melting point of 101 to 104 °C. As to `CCOC(=O)c1cnc(-c2ccc(C(F)(F)F)cc2)s1`, the melting point lay in the range of 98 to 110 °C. On to `CC(C)(C)S(=O)(=O)CS(=O)(=O)C(C)(C)C`, for which the melting point is 152 to 155 °C. `CC(C)Cn1c(CNC(=O)C2CC2)nc2c(N)nc3ccccc3c21` yielded a melting point of 215 to 216 °C.

Consider `N#Cc1cc(NC(=O)c2cccn2-c2ccc(F)cc2)ccc1N1CCCCC1`, for which the melting point was in the range of 158 to 159 °C. Regarding `NC(=NC(=O)c1nc(Cl)c(N)nc1N)NCCCCCCCCCCCC(=O)Nc1ncc[nH]1`, the melting point was in the range of 102 to 104 °C.

`CCC(C)(C)NC(=S)Nc1cc(F)cc(Br)c1` showed a melting point of 123 to 124 °C. In turn, `COc1cc(C(O)CCCc2ccccc2)ccc1OCc1ccccc1` (stereo not drawn) yielded a melting point of 71 to 73 °C. The result for `CCn1c(CCO)nc(N2CCc3ccccc3CC2)c(C#N)c1=O` reads 114 to 115 °C.
